Tests used:
ERα [1] = target: T1, ERα (Homo sapiens, UniProt P03372); assay: Estrogen receptor-alpha (ERα) degradation assay in MCF-7 cells using western blot; type: cell-based; parameters: assessed for their activity in degrading ERα in MCF-7 cells via western blot; endogenous in cells; host or cells: MCF7 cells; conditions: ER-alpha degradation, MCF7 cells, 3 days of incubation
T1 sequence (P03372 1-595): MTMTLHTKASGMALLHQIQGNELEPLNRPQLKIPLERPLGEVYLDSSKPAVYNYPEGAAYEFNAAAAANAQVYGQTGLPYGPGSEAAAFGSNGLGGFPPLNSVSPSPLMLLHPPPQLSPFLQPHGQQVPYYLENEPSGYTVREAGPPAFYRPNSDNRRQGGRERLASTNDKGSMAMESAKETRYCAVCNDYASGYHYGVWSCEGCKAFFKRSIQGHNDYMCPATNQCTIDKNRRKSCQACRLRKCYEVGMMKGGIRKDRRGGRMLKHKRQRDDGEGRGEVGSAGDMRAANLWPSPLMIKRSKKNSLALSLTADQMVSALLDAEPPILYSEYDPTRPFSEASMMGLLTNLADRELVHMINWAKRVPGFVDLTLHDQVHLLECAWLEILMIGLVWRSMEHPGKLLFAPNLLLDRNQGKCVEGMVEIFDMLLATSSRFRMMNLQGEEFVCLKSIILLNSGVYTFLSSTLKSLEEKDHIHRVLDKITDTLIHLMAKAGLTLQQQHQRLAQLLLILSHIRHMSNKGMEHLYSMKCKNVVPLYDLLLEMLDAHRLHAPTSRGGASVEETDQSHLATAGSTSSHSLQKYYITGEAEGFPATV
Experimental: Compounds prepared in this application were also analyzed for the degradation of ERα in MCF7 and T47D cells.
Estrogen Receptor-Alpha (ERα) Degradation Assay in MCF-7 Cells Using Western Blot Method for Table 4.
The exemplary novel ERα degraders were assessed for their activity in degrading ERα in MCF-7 cells via western blot. The assay was carried out in the presence of 10% fetal bovine serum (FBS) or high percentage of human or mouse serum.
MCF7 cells were grown in DMEM/F12 with 10% fetal bovine serum and seeded at 24,000 cells per well in 100 μl into 96-well clear tissue culture plates. The following day, the cells were treated with PROTACs in a […] concentration curve with 100 nM being the top concentration and serial dilutions to make the other concentrations (30 nM, 10 nM, 3 nM, 1 nM, and 0.3 nM). At all concentrations, 0.01% DMSO is the final concentration in the well. The following day, the plates are aspirated, washed with 50 μl of cold PBS. The cells are lysed with 50 μl/well 4° C. Cell Lysis Buffer (Catalog #9803; Cell Signaling Technology, Danvers, Mass.) (20 mM Tris-HCL (pH 7.5), 150 mM NaCl, 1 mM […], 1 mM EGTA, 1% Triton, 2.5 mM sodium pyrophosphate, 1 mM B-glycerophosphate, 1 mM sodium vanadate, 1 ug/ml leupeptin). Lysates were clarified at 16,000×g for 10 minutes, and 2 μg of protein was subjected to SDS-PAGE analysis and followed by immunoblotting according to standard protocols. The antibodies used were ERα (Cell Signaling Technologies Catalog #8644), and Tubulin (Sigma Catalog #T9026; St. Louis, Mo.). Detection reagents were Clarity Western ECL substrate (Bio-Rad Catalog #170-5060; Hercules, Calif.).
Alternatively, MCF7 cells were grown in DMEM/F12 with 10% fetal bovine serum and seeded at 24,000 cells per well in 500 μl in 24-well clear tissue culture plates. The following day, the cells were treated with PROTACs in a 5-point concentration curve (100 nM, 33 nM, 11 nM, 3.7 nM, and 1.2 nM) in the presence of 0.01% DMSO. After 72 hours, the wells are aspirated and washed with 500 μl of PBS. The cells are lysed with 100 μl/well 4° C. Cell Lysis Buffer (Catalog #9803; Cell Signaling Technology, Danvers, M A) (20 mM Tris-HCL (pH 7.5), 150 mM NaCl, 1 mM Na2EDTA, 1 mM EGTA, 1% Triton, 2.5 mM sodium pyrophosphate, 1 mM B-glycerophosphate, 1 mM sodium vanadate, 1 ug/ml leupeptin). Lysates were clarified at 16,000×g for 10 minutes, and 2 μg of protein was subjected to SDS-PAGE analysis and followed by immunoblotting according to standard protocols. The antibodies used were ER(X (Cell Signaling Technologies Catalog #8644), and Tubulin (Sigma Catalog #T9026; St. Louis, Mo.). Detection reagents were Clarity Western ECL substrate (Bio-Rad Catalog #170-5060; Hercules, Calif.).

ERα [2] = target: T1, ERα; assay: ERE luciferase reporter gene assay in T47D-KBluc cells (target engagement); type: cell-based; parameters: T47D human breast cancer cells stably transfected with estrogen responsive element/promoter/luciferase reporter gene; host or cells: T47D-KBluc cells; conditions: 10% FBS, 24 hours, Table 2 VHL centric PROTACs, read-out: IC50
Summary of the method: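 T47D-KBluc breast cancer cells, which carry a stable ERE-luciferase reporter, were grown in RPMI with 10% FBS (about 10 pM estrogen) and exposed to PROTACs for 24 h. The 12-point, 3-fold series ran from 300 nM to 2 pM. Luciferase was read after lysis, and IC50 was fitted from duplicates.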

| SMILES | DC50 (ERα [1]) [nM] | Dmax (ERα [1]) [%] | IC50 (ERα [2]) [nM] |
| --- | --- | --- | --- |
| Cc1ncsc1-c1ccc(CNC(=O)[C@@H]2C[C@@H](O)CN2C(=O)C(c2cc(OCCN3CCN(CCOc4ccc(Oc5c(-c6ccc(Br)cc6)sc6cc(O)ccc56)cc4)CC3)no2)C(C)C)cc1 (stereo in doubt) [Compound 164, (2S,4R)-1-((S)-2-(3-(2-(4-(2-(4-((2-(4-bromophenyl)-6-hydroxybenzo[b]thiophen-3-yl)oxy)phenoxy)ethyl)piperazin-1-yl)ethoxy)isoxazol-5-yl)-3-methylbutanoyl)-4-hydroxy-N-(4-(4-methylthiazol-5-yl)benzyl)pyrrolidine-2-carboxamide] | 1 to 10 | 50 to 75 | 2.7 |
| Cc1ncsc1-c1ccc([C@H](C)NC(=O)[C@@H]2C[C@@H](O)CN2C(=O)[C@@H](NC(=O)COCCOCCOCCOc2ccc(Oc3c(-c4ccc(F)cc4)sc4cc(O)ccc34)cc2)C(C)(C)C)cc1 [Compound 111, (2S,4R)-1-((S)-2-tert-butyl-14-(4-(2-(4-fluorophenyl)-6-hydroxybenzo[b]thiophen-3-yloxy)phenoxy)-4-oxo-6,9,12-trioxa-3-azatetradecane)-4-hydroxy-N—((S)-1-(4-(4-methylthiazol-5-yl)phenyl)ethyl)pyrrolidine-2-carboxamide] | < 1 | > 75 | 0.6 |
| Cc1ncsc1-c1ccc(CNC(=O)[C@@H]2C[C@@H](O)CN2C(=O)[C@@H](NC(=O)COCCOC2CN(CCOc3ccc(Oc4c(-c5ccc(F)cc5)sc5cc(O)ccc45)cc3)C2)C(C)(C)C)cc1 [Compound 117, (2S,4R)-1-((S)-2-(2-(2-(1-(2-(4-(2-(4-fluorophenyl)-6-hydroxybenzo[b]thiophen-3-yloxy)phenoxy)ethyl)azetidin-3-yloxy)ethoxy)acetamido)-3,3-dimethylbutanoyl)-4-hydroxy-N-(4-(4-methylthiazol-5-yl)benzyl)pyrrolidine-2-carboxamide] | 1 to 10 | 50 to 75 | 3.3 |
| Cc1ncsc1-c1ccc(CNC(=O)[C@@H]2C[C@@H](O)CN2C(=O)[C@@H](NC(=O)COCCN2CCN(CCOc3ccc(Oc4c(-c5ccc(F)cc5)sc5cc(O)ccc45)cc3)CC2)C(C)(C)C)cc1 [Compound 118, (2S,4R)-1-((S)-2-(2-(2-(4-(2-(4-((2-(4-fluorophenyl)-6-hydroxybenzo[b]thiophen-3-yl)oxy)phenoxy)ethyl)piperazin-1-yl)ethoxy)acetamido)-3,3-dimethylbutanoyl)-4-hydroxy-N-(4-(4-methylthiazol-5-yl)benzyl)pyrrolidine-2-carboxamide] | < 1 | > 75 | 0.4 |
| Cc1ncsc1-c1ccc([C@H](C)NC(=O)[C@@H]2C[C@@H](O)CN2C(=O)[C@@H](NC(=O)COCCOCCOCCOc2ccc(Oc3c(-c4ccc(Cl)cc4)sc4cc(O)ccc34)cc2)C(C)(C)C)cc1 [Compound 119, (2S,4R)-1-((S)-2-tert-butyl-14-(4-(2-(4-chlorophenyl)-6-hydroxybenzo[b]thiophen-3-yloxy)phenoxy)-4-oxo-6,9,12-trioxa-3-azatetradecane)-4-hydroxy-N-((S)-1-(4-(4-methylthiazol-5-yl)phenyl)ethyl)pyrrolidine-2-carboxamide] | 1 to 10 | > 75 | 1.1 |
| Cc1ncsc1-c1ccc(CNC(=O)[C@@H]2C[C@@H](O)CN2C(=O)[C@@H](NC(=O)Cc2ccc(-c3ccn(CCOc4ccc(Oc5c(-c6ccc(F)cc6)sc6cc(O)ccc56)cc4)n3)cc2)C(C)(C)C)cc1 [Compound 121, (2S,4R)-1-[(2S)-2-[2-(4-[1-[2-(4-[[2-(4-fluorophenyl)-6-hydroxy-1-benzothiophen-3-yl]oxy]phenoxy)ethyl]-1H-pyrazol-3-yl]phenyl)acetamido]-3,3-dimethylbutanoyl]-4-hydroxy-N-[[4-(4-methyl-1,3-thiazol-5-yl)phenyl]methyl]pyrrolidine-2-carboxamide] | 1 to 10 | > 75 | 1 |

Source: patent US11384063B2, “Modulators of estrogen receptor proteolysis and associated methods of use” (Arvinas Operations, Inc., priority 2017, dated 2022)
